Legend:
[1] = biological target: T1, GST-tagged Tankyrase-2 (873-1166 aa) (Homo sapiens, UniProt Q9H2K2); assay: Tankyrase 2 autoparsylation assay (HTRF enzyme assay); format: biochemical
T1 construct: GST-tagged Tankyrase-2 (873-1166 aa)
Procedure, shortened: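 ~250 nM GST-tagged enzyme with 5 μM biotin-NAD in HEPES/Mg/DTT buffer pH 7.7, 10 compound concentrations, 90 min at 30 °C; EDTA stop. Eu-anti-GST/streptavidin-Xlent HTRF read (665/615 ratio) after 1 h RT. IC50 relative to inhibitor-free reaction and 5 μM XAV-939 as zero.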

tankyrase 1/2 = assay: Cellular inhibition of Tankyrase: increase of Axin2 level in DLD1 cells (Luminex); format: cell-based; details: 24 hours, read-out: EC50 tankyrase 1/2 (cell assay)
Procedure, shortened: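 DLD1 colon carcinoma cells treated 24 h with seven-step serial dilutions in triplicate (0.3% DMSO final). Axin2 in cleared lysates captured on anti-Axin2 beads, detected with polyclonal anti-Axin2 plus PE secondary, and quantified by Luminex. EC50 from data normalized to solvent control; IWR-2 (3E-06 M) marks maximal Axin2 increase.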

His-tagged Parp-1 = biological target: T2, His-tagged Parp-1 (Homo sapiens, UniProt P09874); assay: PARP-1 autoparsylation assay (HTRF); format: biochemical; details: PARP-1 autoparsylation HTRF assay
T2 construct: purchased Enzo Life Sciences GmbH
T2 sequence (P09874 whole entry): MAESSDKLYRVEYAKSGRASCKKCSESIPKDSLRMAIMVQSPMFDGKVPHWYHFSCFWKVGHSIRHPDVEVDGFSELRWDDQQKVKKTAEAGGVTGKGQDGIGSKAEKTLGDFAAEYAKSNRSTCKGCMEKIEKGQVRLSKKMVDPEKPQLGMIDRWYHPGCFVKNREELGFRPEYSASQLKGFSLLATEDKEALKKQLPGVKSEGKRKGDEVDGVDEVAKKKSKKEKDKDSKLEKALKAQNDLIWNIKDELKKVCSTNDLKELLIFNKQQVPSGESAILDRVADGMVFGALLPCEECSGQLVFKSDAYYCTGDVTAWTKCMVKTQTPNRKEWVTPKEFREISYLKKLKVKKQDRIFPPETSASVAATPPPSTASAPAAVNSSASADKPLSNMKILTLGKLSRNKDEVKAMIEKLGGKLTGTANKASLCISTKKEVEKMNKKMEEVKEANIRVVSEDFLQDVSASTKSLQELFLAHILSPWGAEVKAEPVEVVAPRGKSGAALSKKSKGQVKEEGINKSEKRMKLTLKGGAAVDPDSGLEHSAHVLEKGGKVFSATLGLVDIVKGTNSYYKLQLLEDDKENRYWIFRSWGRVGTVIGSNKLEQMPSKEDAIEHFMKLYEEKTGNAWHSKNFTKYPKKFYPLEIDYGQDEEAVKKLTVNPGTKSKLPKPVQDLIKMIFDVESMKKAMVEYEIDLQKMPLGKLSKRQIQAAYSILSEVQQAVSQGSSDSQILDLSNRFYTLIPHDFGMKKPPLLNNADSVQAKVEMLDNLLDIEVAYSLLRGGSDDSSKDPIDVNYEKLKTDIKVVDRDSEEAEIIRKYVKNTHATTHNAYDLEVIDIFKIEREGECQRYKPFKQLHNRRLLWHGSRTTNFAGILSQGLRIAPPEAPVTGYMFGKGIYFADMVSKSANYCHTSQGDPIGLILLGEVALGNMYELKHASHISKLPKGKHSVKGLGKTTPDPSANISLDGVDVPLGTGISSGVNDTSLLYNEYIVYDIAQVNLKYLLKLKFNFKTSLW
From the text: Description of the PARP1 Assay
Biochemical Activity Testing of PARP-1: Autoparsylation Assay
The autoparsylation assay is run in two steps: the enzymatic reaction in which
His-tagged Parp-1 transfers biotinylated ADP-ribose/ADP-ribose to itself from biotinylated NAD/NAD as co-substrate and the detection reaction where a time resolved FRET between cryptate labelled anti-His antibody bound to the His tag of the enzyme and Xlent® labelled-streptavidin bound the biotin-parsylation residue is analysed. The autoparsylation activity is detectable directly via the increase in HTRF signal.
The autoparsylation assay is performed as 384-well HTRF® (Cisbio, Codolet, France) assay format in Greiner low volume nb 384-well microtiter plates. 35 nM His-tagged Parp-1 (human, recombinant, Enzo Life Sciences GmbH, Lörrach, Germany) and a mixture of 125 nM bio-NAD (Biolog, Life science Inst., Bremen, Germany) and 800 nM NAD as co-substrate are incubated in a total volume of 6 μl (100 mM Tris/HCl, 4 mM Mg-chloride, 0.01% IGEPAL® CA630, 1 mM DTT, 0.5% DMSO, pH 8, 13 ng/μl activated DNA (BPS Bioscience, San Diego, US)) in the absence or presence of the test compound (10 dilution concentrations) for 150 min at 23° C. The reaction is stopped by the addition of 4 μl of the Stop/detection solution (70 nM SA-Xlent® (Cisbio, Codolet, France), 2.5 nM Anti-His-K® (Eu-labelled anti-His, Cisbio, Codolet, France) in 50 mM HEPES, 400 mM KF, 0.1% BSA, 20 mM EDTA, pH 7.0). After 1 h incubation at room temperature the HTRF is measured with an Envision multimode reader (Perkin Elmer LAS Germany GmbH) at excitation wavelength 340 nm (laser mode) and emission wavelengths 615 nm and 665 nm. The ratio of the emission signals is determined. The full value used is the inhibitor-free reaction. The pharmacological zero value used is Olaparib (LClabs, Woburn, US) in a final concentration of 1 μM. The inhibitory values (IC50) are determined using either the program Symyx Assay Explorer® or Condosseo® from GeneData.

T1 sequence (Q9H2K2 873-1166): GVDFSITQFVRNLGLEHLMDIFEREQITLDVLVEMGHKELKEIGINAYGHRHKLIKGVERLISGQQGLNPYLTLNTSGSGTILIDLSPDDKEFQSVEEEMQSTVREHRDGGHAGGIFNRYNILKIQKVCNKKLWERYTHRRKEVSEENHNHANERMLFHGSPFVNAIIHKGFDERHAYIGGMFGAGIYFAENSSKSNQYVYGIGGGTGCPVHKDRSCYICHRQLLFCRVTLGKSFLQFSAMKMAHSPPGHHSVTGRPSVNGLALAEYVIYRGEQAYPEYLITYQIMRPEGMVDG

Structure (SMILES) | IC50 [1] | EC50 (tankyrase 1/2) | IC50 (His-tagged Parp-1)
CC(C)(OCCO)c1ccc(-c2cn3cc(F)cc3c(=O)[nH]2)cc1 [Compound A70, 7-fluoro-3-{4-[1-(2-hydroxy-ethoxy)-1-methyl-ethyl]-phenyl}-2H-pyrrolo[1,2-a]pyrazin-1-one] | < 300 nM | < 300 nM | 300 to 3000 nM
Cc1cc2c(=O)[nH]c(-c3ccc(C(C)(C)O)cc3)cn2n1 [Compound A46, 6-[4-(1-hydroxy-1-methyl-ethyl)phenyl]-2-methyl-5H-pyrazolo[1,5-a]pyrazin-4-one] | 300 to 3000 nM | 300 to 3000 nM | 300 to 3000 nM
CC(C)(C)c1ccc(-c2cn3cc(F)cc3c(=O)[nH]2)cc1 [Compound A35, 3-(4-tert-butyl-phenyl)-7-fluoro-2H-pyrrolo[1,2-a]pyrazin-1-one] | < 300 nM | < 300 nM | 3000 to 50000 nM
CC(C)(C)c1ccc(-c2cn3cccc3c(=O)[nH]2)cc1 [Compound A11, 3-(4-tert-butyl-phenyl)-2H-pyrrolo[1,2-a]pyrazin-1-one] | < 300 nM | < 300 nM | 3000 to 50000 nM
COCCOC(C)(C)c1ccc(-c2cn3cc(F)cc3c(=O)[nH]2)cc1 [Compound A71, 7-fluoro-3-{4-[1-(2-methoxy-ethoxy)-1-methyl-ethyl]-phenyl}-2H-pyrrolo[1,2-a]pyrazin-1-one] | 300 to 3000 nM | 300 to 3000 nM | 3000 to 50000 nM
CC(C)(O)c1ccc(-c2cn3cc(Cl)cc3c(=O)[nH]2)cc1 [Compound A60, 7-chloro-3-[4-(1-hydroxy-1-methyl-ethyl)-phenyl]-2H-pyrrolo[1,2-a]pyrazin-1-one] | < 300 nM | < 300 nM | 300 to 3000 nM
Cn1cc(-c2ccc(-c3cn4cccc4c(=O)[nH]3)cc2)cn1 [Compound A25, 3-[4-(1-methyl-1H-pyrazol-4-yl)-phenyl]-2H-pyrrolo[1,2-a]pyrazin-1-one] | < 300 nM | < 300 nM | 3000 to 50000 nM
CC(C)(N)c1ccc(-c2cn3cc(F)cc3c(=O)[nH]2)cc1 [Compound A72, 3-[4-(1-amino-1-methyl-ethyl)-phenyl]-7-fluoro-2H-pyrrolo[1,2-a]pyrazin-1-one] | < 300 nM | 3000 to 50000 nM | < 300 nM
CC(C)(F)c1ccc(-c2cn3cc(F)cc3c(=O)[nH]2)cc1 [Compound A63, 7-fluoro-3-[4-(1-fluoro-1-methyl-ethyl)-phenyl]-2H-pyrrolo[1,2-a]pyrazin-1-one] | 300 to 3000 nM | < 300 nM | 300 to 3000 nM
Cc1ccc(-c2cn3cccc3c(=O)[nH]2)cc1 [Compound A12, 3-p-tolyl-2H-pyrrolo[1,2-a]pyrazin-1-one] | 300 to 3000 nM | 300 to 3000 nM | 300 to 3000 nM
CC(C)(O)c1ccc(-c2cn3cc(F)cc3c(=O)[nH]2)cc1 [Compound A59, 7-fluoro-3-[4-(1-hydroxy-1-methyl-ethyl)-phenyl]-2H-pyrrolo[1,2-a]pyrazin-1-one] | < 300 nM | < 300 nM | 300 to 3000 nM
CN1CCC(c2ccc(-c3cn4cccc4c(=O)[nH]3)cc2)CC1 [Compound A79, 3-[4-(1-methyl-piperidin-4-yl)-phenyl]-2H-pyrrolo[1,2-a]pyrazin-1-one] | < 300 nM | 3000 to 50000 nM | 3000 to 50000 nM
O=c1[nH]c(-c2ccc(C3(O)CCC3)cc2)cn2cccc12 [Compound A111] | < 300 nM | < 300 nM | 300 to 3000 nM
CC(C)(O)c1ccc(-c2cn3cccc3c(=O)[nH]2)cc1 [Compound A29, 3-[4-(1-hydroxy-1-methyl-ethyl)-phenyl]-2H-pyrrolo[1,2-a]pyrazin-1-one] | < 300 nM | < 300 nM | 300 to 3000 nM
Cc1cc2c(=O)[nH]c(-c3ccc(C(C)(C)O)cc3)cn2c1 [Compound A56, 3-[4-(1-hydroxy-1-methyl-ethyl)-phenyl]-7-methyl-2H-pyrrolo[1,2-a]pyrazin-1-one] | 300 to 3000 nM | < 300 nM | 300 to 3000 nM
CCC(O)(CC)c1ccc(-c2cn3cc(F)cc3c(=O)[nH]2)cc1 [Compound A61, 3-[4-(1-ethyl-1-hydroxy-propyl)-phenyl]-7-fluoro-2H-pyrrolo[1,2-a]pyrazin-1-one] | < 300 nM | < 300 nM | 300 to 3000 nM
CC1(c2ccc(-c3cn4cc(F)cc4c(=O)[nH]3)cc2)CCCO1 (stereo not drawn) [Compound A73, 7-fluoro-3-[4-(2-methyl-tetrahydro-furan-2-yl)-phenyl]-2H-pyrrolo[1,2-a]pyrazin-1-one] | < 300 nM | < 300 nM | 300 to 3000 nM
CN1CCC(c2ccc(-c3cn4cccc4c(=O)[nH]3)cc2)C1 (stereo not drawn) [Compound A80, 3-[4-(1-methyl-pyrrolidin-3-yl)-phenyl]-2H-pyrrolo[1,2-a]pyrazin-1-one] | 300 to 3000 nM | 3000 to 50000 nM | 3000 to 50000 nM
O=c1[nH]c(-c2ccc(C3CCNC3)cc2)cn2cccc12 (stereo not drawn) [Compound A76, 3-(4-Pyrrolidin-3-yl-phenyl)-2H-pyrrolo[1,2-a]pyrazin-1-one] | 300 to 3000 nM | 300 to 3000 nM | 300 to 3000 nM
O=c1[nH]c(-c2ccc(C3CCNCC3)cc2)cn2cccc12 [Compound A75, 3-(4-piperidin-4-yl-phenyl)-2H-pyrrolo[1,2-a]pyrazin-1-one] | < 300 nM | 300 to 3000 nM | 3000 to 50000 nM
